Legend:
Assay in all cases: relative viability (nuclei count vs DMSO), 5 days (fraction); higher = more cells survive
[1] = compound: O=C(NCCCNc1nc(Nc2cccc(NC(=O)N3CCCC3)c2)ncc1I)c1cccs1 [BX 795] + COc1cc2c(Oc3ccc(NC(=O)C4(C(=O)Nc5ccc(F)cc5)CC4)cc3F)ccnc2cc1OCCCN1CCOCC1 [Foretinib] (partner 0.25 µM)
Outline: (§1)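 Relative viability divides the nuclei count in treated wells by that in vehicle wells. Lung cancer cell lines were seeded in 1536-well plates, dosed by pin tool the next day, and fixed and stained after 5 days in one step with final 0.05% Triton X-100, 1% formaldehyde and 1 ug/ml Hoechst. Dosing was a single drug or a fixed anchor-drug dose plus five library-drug doses (not always all listed) in √10 steps, and values are medians of duplicate plates imaged at 4×.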

[2] = compound: O=C(NCCCNc1nc(Nc2cccc(NC(=O)N3CCCC3)c2)ncc1I)c1cccs1 [BX 795] + O=C(CCCCCCC(=O)Nc1ccccc1)NO [Vorinostat] (partner 1 µM)
Outline: as §1

[3] = compound: O=C(NCCCNc1nc(Nc2cccc(NC(=O)N3CCCC3)c2)ncc1I)c1cccs1 [BX 795] + Nc1nc2[nH]cc(CCc3ccc(C(=O)N[C@@H](CCC(=O)O)C(=O)O)cc3)c2c(=O)[nH]1 [Pemetrexed] (partner 0.2 µM)
Outline: as §1

[4] = compound: O=C(NCCCNc1nc(Nc2cccc(NC(=O)N3CCCC3)c2)ncc1I)c1cccs1 [BX 795] + CCNC(=O)c1noc(-c2cc(C(C)C)c(O)cc2O)c1-c1ccc(CN2CCOCC2)cc1 [Luminespib] (partner 0.01 µM)
Outline: as §1

[5] = compound: O=C(NCCCNc1nc(Nc2cccc(NC(=O)N3CCCC3)c2)ncc1I)c1cccs1 [BX 795] + CC(=O)c1c(C)c2cnc(Nc3ccc(N4CCNCC4)cn3)nc2n(C2CCCC2)c1=O [Palbociclib] (partner 0.5 µM)
Outline: as §1

Cell Line: HOP-62
- relative viability ([1]; first compound 0.04 µM): 1.04
- relative viability ([1]; first compound 0.1265 µM): 0.967
- relative viability ([1]; first compound 0.4 µM): 1.37
- relative viability ([1]; first compound 1.265 µM): 0.923
- relative viability ([2]; first compound 0.04 µM): 0.807
- relative viability ([2]; first compound 0.1265 µM): 0.638
- relative viability ([2]; first compound 0.4 µM): 0.546
- relative viability ([2]; first compound 1.265 µM): 0.456
- relative viability ([3]; first compound 0.04 µM): 0.303
- relative viability ([3]; first compound 0.1265 µM): 0.284
- relative viability ([3]; first compound 0.4 µM): 0.296
- relative viability ([3]; first compound 1.265 µM): 0.306
- relative viability ([4]; first compound 0.04 µM): 0.81
- relative viability ([4]; first compound 0.1265 µM): 1.01
- relative viability ([4]; first compound 0.4 µM): 1.08
- relative viability ([4]; first compound 1.265 µM): 1.02
- relative viability ([5]; first compound 0.04 µM): 0.471
- relative viability ([5]; first compound 0.1265 µM): 0.465
- relative viability ([5]; first compound 0.4 µM): 0.502
- relative viability ([5]; first compound 1.265 µM): 0.47

Cell Line: PC-14
- relative viability ([1]; first compound 0.04 µM): 0.861
- relative viability ([1]; first compound 0.1265 µM): 1.01
- relative viability ([1]; first compound 0.4 µM): 0.992
- relative viability ([1]; first compound 1.265 µM): 0.704
- relative viability ([2]; first compound 0.04 µM): 0.819
- relative viability ([2]; first compound 0.1265 µM): 0.778
- relative viability ([2]; first compound 0.4 µM): 0.424
- relative viability ([2]; first compound 1.265 µM): 0.433
- relative viability ([3]; first compound 0.04 µM): 0.0872
- relative viability ([3]; first compound 0.1265 µM): 0.135
- relative viability ([3]; first compound 0.4 µM): 0.0536
- relative viability ([3]; first compound 1.265 µM): 0.115
- relative viability ([4]; first compound 0.04 µM): 0.138
- relative viability ([4]; first compound 0.1265 µM): 0.113
- relative viability ([4]; first compound 0.4 µM): 0.138
- relative viability ([4]; first compound 1.265 µM): 0.117
- relative viability ([5]; first compound 0.04 µM): 0.516
- relative viability ([5]; first compound 0.1265 µM): 0.498
- relative viability ([5]; first compound 0.4 µM): 0.485
- relative viability ([5]; first compound 1.265 µM): 0.318

Cell Line: EMC-BAC-2
- relative viability ([1]; first compound 0.04 µM): 1.01
- relative viability ([1]; first compound 0.1265 µM): 1.12
- relative viability ([1]; first compound 0.4 µM): 0.914
- relative viability ([1]; first compound 1.265 µM): 0.322
- relative viability ([2]; first compound 0.04 µM): 0.393
- relative viability ([2]; first compound 0.1265 µM): 0.261
- relative viability ([2]; first compound 0.4 µM): 0.411
- relative viability ([2]; first compound 1.265 µM): 0.198
- relative viability ([3]; first compound 0.04 µM): 0.383
- relative viability ([3]; first compound 0.1265 µM): 0.446
- relative viability ([3]; first compound 0.4 µM): 0.428
- relative viability ([3]; first compound 1.265 µM): 0.454
- relative viability ([4]; first compound 0.04 µM): 1.18
- relative viability ([4]; first compound 0.1265 µM): 1.22
- relative viability ([4]; first compound 0.4 µM): 1.13
- relative viability ([4]; first compound 1.265 µM): 0.492
- relative viability ([5]; first compound 0.04 µM): 0.536
- relative viability ([5]; first compound 0.1265 µM): 0.52
- relative viability ([5]; first compound 0.4 µM): 0.512
- relative viability ([5]; first compound 1.265 µM): 0.432

Cell Line: NCI-H650
- relative viability ([1]; first compound 0.04 µM): 1.06
- relative viability ([1]; first compound 0.1265 µM): 0.935
- relative viability ([1]; first compound 0.4 µM): 0.927
- relative viability ([1]; first compound 1.265 µM): 0.911
- relative viability ([2]; first compound 0.04 µM): 0.391
- relative viability ([2]; first compound 0.1265 µM): 0.429
- relative viability ([2]; first compound 0.4 µM): 0.339
- relative viability ([2]; first compound 1.265 µM): 0.34
- relative viability ([3]; first compound 0.04 µM): 0.889
- relative viability ([3]; first compound 0.1265 µM): 1.04
- relative viability ([3]; first compound 0.4 µM): 0.866
- relative viability ([3]; first compound 1.265 µM): 0.809
- relative viability ([4]; first compound 0.04 µM): 0.765
- relative viability ([4]; first compound 0.1265 µM): 0.759
- relative viability ([4]; first compound 0.4 µM): 0.65
- relative viability ([4]; first compound 1.265 µM): 0.745
- relative viability ([5]; first compound 0.04 µM): 0.346
- relative viability ([5]; first compound 0.1265 µM): 0.343
- relative viability ([5]; first compound 0.4 µM): 0.319
- relative viability ([5]; first compound 1.265 µM): 0.312

— the supplement of paper PMC10307832
